Measurements: patent US9657312B2, “Replication competent pseudo-type retrovirus vector system” (Inje University Industry-Academic Cooperation Foundation, priority 2012, dated 2017)

Tested on: U-87 MG cells
Assay: MTT assay of cytotoxicity of vector-infected cells treated with GCV
Assay type: cell-based, human
Settings: normal (non-infected) cells
Experimental: In order to measure a degree of cytotoxicity of the cells infected with the spRCR-TK vector when treated with GCV in vitro, MTT assay was carried out. First, a vector carrying a therapeutic gene, TK, instead of a GFP gene of the Env vector was prepared. Then, the 293T cells were transfected with the prepared vector and a Gag-pol vector, so as to manufacture the spRCR-TK vector. Then, the U-87 MG cells were infected with the virus of the spRCR-TK vector, and maintained for 14 days. Afterwards, the infected cells and non-infected cells were inoculated into a 96-well plate. […] The GCV treatment period was divided as the 1st, 2nd, 3rd, and 4th day, to perform MTT assay.

Nc1nc(O)c2ncn(COC(CO)CO)c2n1 [GCV, Ganciclovir]
GCV concentration from which normal cells show cytotoxicity: ≥ 70 µg/mL
